# Source: patent US12357631B2 (priority 2018, dated 2025)
# Target: PB2 (Influenza A virus, UniProt P03428)
# Test: biochemical
# Type: binding
# Chain of PB2 (P03428 whole entry, looked up): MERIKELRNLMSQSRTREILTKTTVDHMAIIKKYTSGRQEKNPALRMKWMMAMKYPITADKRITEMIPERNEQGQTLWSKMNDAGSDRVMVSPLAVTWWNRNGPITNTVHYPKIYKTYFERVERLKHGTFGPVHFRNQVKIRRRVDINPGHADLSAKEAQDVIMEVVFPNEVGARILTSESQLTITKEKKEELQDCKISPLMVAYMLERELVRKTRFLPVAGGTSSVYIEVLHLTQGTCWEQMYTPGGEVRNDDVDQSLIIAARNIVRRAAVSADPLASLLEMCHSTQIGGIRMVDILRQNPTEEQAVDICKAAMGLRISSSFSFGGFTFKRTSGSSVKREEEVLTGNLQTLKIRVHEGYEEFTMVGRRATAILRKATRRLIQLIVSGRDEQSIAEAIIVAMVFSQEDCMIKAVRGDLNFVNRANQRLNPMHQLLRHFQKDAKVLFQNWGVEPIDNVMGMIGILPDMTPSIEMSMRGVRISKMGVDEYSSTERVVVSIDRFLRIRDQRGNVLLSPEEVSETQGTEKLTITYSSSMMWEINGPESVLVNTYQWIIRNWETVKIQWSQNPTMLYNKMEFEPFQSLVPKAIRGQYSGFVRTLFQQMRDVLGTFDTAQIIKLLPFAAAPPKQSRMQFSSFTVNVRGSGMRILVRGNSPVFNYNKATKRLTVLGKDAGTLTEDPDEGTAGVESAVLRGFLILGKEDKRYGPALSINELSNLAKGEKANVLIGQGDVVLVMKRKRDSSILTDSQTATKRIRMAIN
row,SMILES,EC50 [µM]
1,O=C(N[C@H]1CCC[C@@H](Nc2nc(-c3c[nH]c4ncc(F)cc34)ncc2F)C1)N1CCCc2ccccc21 [Compound A1],> 100
2,O=C(N[C@H]1CCC[C@@H](Nc2nc(-c3c[nH]c4ncc(F)cc34)ncc2F)C1)N1CCc2ccccc2C1 [Compound A2],> 100
3,O=C(N[C@H]1CCC[C@@H](Nc2nc(-c3c[nH]c4ncc(F)cc34)ncc2F)C1)N1Cc2ccccc2C1 [Compound A3],5 to 25
4,CCOCCOCCCC1CCCN(C(=O)N[C@@H]2CCC[C@H](Nc3nc(-c4c[nH]c5ncc(F)cc45)ncc3F)C2)C1 (stereo partly drawn) [Compound A4],50 to 100
5,CCOCCOCCCCCN1CC(=O)N([C@@H]2CCC[C@H](Nc3nc(-c4c[nH]c5ncc(F)cc45)ncc3F)C2)C1=O [Compound A5],> 100
6,CCOCCOCCCC1CCN(C(=O)N[C@@H]2CCC[C@H](Nc3nc(-c4c[nH]c5ncc(F)cc45)ncc3F)C2)C1 (stereo partly drawn) [Compound A7],5 to 25
7,CCOc1ccccc1OCCCC1CCCN(C(=O)N[C@H]2CCC[C@@H](Nc3nc(-c4c[nH]c5ncc(F)cc45)ncc3F)C2)C1 (stereo partly drawn) [Compound A8],> 100
8,O=C(N[C@H]1CCC[C@@H](Nc2nc(-c3c[nH]c4ncc(F)cc34)ncc2F)C1)N1CCCC(CCCOCCOCc2ccccc2)C1 (stereo partly drawn) [Compound A9],> 100
9,O=C(N[C@H]1CCC[C@@H](Nc2nc(-c3c[nH]c4ncc(F)cc34)ncc2F)C1)N1CCCC(CCCOCCO)C1 (stereo partly drawn) [Compound A10],5 to 25
10,CCOCCOCCCC1CCN(C(=O)N[C@H]2CCC[C@@H](Nc3nc(-c4c[nH]c5ncc(F)cc45)ncc3F)C2)C1 (stereo partly drawn) [Compound A11],5 to 25
11,O=C(N[C@H]1CCC[C@@H](Nc2nc(-c3c[nH]c4ncc(F)cc34)ncc2F)C1)N1CCc2ccccc21 [Compound A14],50 to 100
12,CCOCCOCCCc1cncc(C(=O)N[C@H]2CCC[C@@H](Nc3nc(-c4c[nH]c5ncc(F)cc45)ncc3F)C2)c1 [Compound A23],> 100
13,CCOCCOCCCc1ccnc(C(=O)N[C@H]2CCC[C@@H](Nc3nc(-c4c[nH]c5ncc(F)cc45)ncc3F)C2)c1 [Compound A24],50 to 100
14,CCCCCOCCCc1ccnc(C(=O)N[C@@H]2CCC[C@H](Nc3nc(-c4c[nH]c5ncc(F)cc45)ncc3F)C2)c1 [Compound A27],> 100
15,CCCOCCCCCc1ccnc(C(=O)N[C@@H]2CCC[C@H](Nc3nc(-c4c[nH]c5ncc(F)cc45)ncc3F)C2)c1 [Compound A28],> 100
16,CCOc1ccccc1OCCCc1ccnc(C(=O)N[C@@H]2CCC[C@H](Nc3nc(-c4c[nH]c5ncc(F)cc45)ncc3F)C2)c1 [Compound A29],> 100
17,CCOCCCCCCc1ccnc(C(=O)N[C@H]2CCC[C@@H](Nc3nc(-c4c[nH]c5ncc(F)cc45)ncc3F)C2)c1 [Compound A30],> 100
18,CCCCOCCCCc1ccnc(C(=O)N[C@H]2CCC[C@@H](Nc3nc(-c4c[nH]c5ncc(F)cc45)ncc3F)C2)c1 [Compound A31],> 100
19,CCOCCOCCCc1cc(C(=O)N[C@@H]2CCC[C@H](Nc3nc(-c4c[nH]c5ncc(F)cc45)ncc3F)C2)ncn1 [Compound A33],> 100
20,O=C(N[C@@H]1CCC[C@H](Nc2nc(-c3c[nH]c4ncc(F)cc34)ncc2F)C1)c1cc(CCCOCCOCc2ccccc2)ccn1 [Compound A34],> 100
21,O=C(N[C@H]1CCC[C@@H](Nc2nc(-c3c[nH]c4ncc(F)cc34)ncc2F)C1)c1ccccn1 [Compound A35],50 to 100

row,SMILES,EC50 [µM]
1,O=C(N[C@@H]1CCC[C@H](Nc2nc(-c3c[nH]c4ncc(F)cc34)ncc2F)C1)c1cc(CCCOCCOCc2ccc(F)cc2)ccn1 [Compound A36],> 100
2,O=C(N[C@H]1CCC[C@@H](Nc2nc(-c3c[nH]c4ncc(F)cc34)ncc2F)C1)c1cccnc1 [Compound A37],> 100
3,CCOCCCc1ccnc(C(=O)N[C@@H]2CCC[C@H](Nc3nc(-c4c[nH]c5ncc(F)cc45)ncc3F)C2)c1 [Compound A38],25 to 50
4,O=C(N[C@@H]1CCC[C@H](Nc2nc(-c3c[nH]c4ncc(F)cc34)ncc2F)C1)c1cc(CCCO)ccn1 [Compound A39],< 5
5,CCC(CC)OCCOCCCc1ccnc(C(=O)N[C@@H]2CCC[C@H](Nc3nc(-c4c[nH]c5ncc(F)cc45)ncc3F)C2)c1 [Compound A40],> 100
6,CCOCc1ccc(C(=O)N[C@@H]2CCC[C@H](Nc3nc(-c4c[nH]c5ncc(F)cc45)ncc3F)C2)nc1 [Compound A41],50 to 100
7,CCCCc1ccnc(C(=O)N[C@H]2CCC[C@@H](Nc3nc(-c4c[nH]c5ncc(F)cc45)ncc3F)C2)c1 [Compound A42],> 100
8,CCOCc1ccnc(C(=O)N[C@H]2CCC[C@@H](Nc3nc(-c4c[nH]c5ncc(F)cc45)ncc3F)C2)c1 [Compound A43],5 to 25
9,CCOCCc1ccnc(C(=O)N[C@H]2CCC[C@@H](Nc3nc(-c4c[nH]c5ncc(F)cc45)ncc3F)C2)c1 [Compound A44],25 to 50
10,COCCOCc1ccnc(C(=O)N[C@@H]2CCC[C@H](Nc3nc(-c4c[nH]c5ncc(F)cc45)ncc3F)C2)c1 [Compound A45],25 to 50
11,O=C(N[C@H]1CCC[C@@H](Nc2nc(-c3c[nH]c4ncc(F)cc34)ncc2F)C1)c1cc2ccccc2cn1 [Compound A46],> 100
12,Cc1cccc(C(=O)N[C@H]2CCC[C@@H](Nc3nc(-c4c[nH]c5ncc(F)cc45)ncc3F)C2)n1 [Compound A47],5 to 25
13,O=C(O)CCc1ccnc(C(=O)N[C@H]2CCC[C@@H](Nc3nc(-c4c[nH]c5ncc(F)cc45)ncc3F)C2)c1 [Compound A49],< 5
14,O=C(N[C@H]1CCC[C@@H](Nc2nc(-c3c[nH]c4ncc(F)cc34)ncc2F)C1)c1cc(CC(O)CO)ccn1 (stereo partly drawn) [Compound A50],< 5
15,Cc1cc(C(=O)N[C@H]2CCC[C@@H](Nc3nc(-c4c[nH]c5ncc(F)cc45)ncc3F)C2)ccn1 [Compound A51],5 to 25
16,CCOc1cccc(-c2ccnc(C(=O)N[C@H]3CCC[C@@H](Nc4nc(-c5c[nH]c6ncc(F)cc56)ncc4F)C3)c2)c1 [Compound A52],> 100
17,Cc1ccnc(C(=O)N[C@H]2CCC[C@@H](Nc3nc(-c4c[nH]c5ncc(F)cc45)ncc3F)C2)c1 [Compound A53],5 to 25
18,O=C(N[C@H]1CCC[C@@H](Nc2nc(-c3c[nH]c4ncc(F)cc34)ncc2F)C1)c1cc(-c2ccccc2)ccn1 [Compound A54],5 to 25
19,O=C(N[C@H]1CCC[C@@H](Nc2nc(-c3c[nH]c4ncc(F)cc34)ncc2F)C1)c1cnc2ccccc2c1 [Compound A55],5 to 25
20,Cc1ccc(C(=O)N[C@H]2CCC[C@@H](Nc3nc(-c4c[nH]c5ncc(F)cc45)ncc3F)C2)cn1 [Compound A56],< 5
21,O=C(N[C@H]1CCC[C@@H](Nc2nc(-c3c[nH]c4ncc(F)cc34)ncc2F)C1)c1cncc(F)c1 [Compound A57],5 to 25

row,SMILES,EC50 [µM]
1,CCCCc1ccc(C(=O)N[C@@H]2CCC[C@H](Nc3nc(-c4c[nH]c5ncc(F)cc45)ncc3F)C2)nc1 [Compound A58],50 to 100
2,O=C(N[C@@H]1CCC[C@H](Nc2nc(-c3c[nH]c4ncc(F)cc34)ncc2F)C1)c1cc(CCCOCCOCCO)ccn1 [Compound A59],< 5
3,O=C(N[C@@H]1CCC[C@H](Nc2nc(-c3c[nH]c4ncc(F)cc34)ncc2F)C1)c1cc(-c2ccc(F)cc2)ccn1 [Compound A60],5 to 25
4,COCc1cccc(-c2ccnc(C(=O)N[C@@H]3CCC[C@H](Nc4nc(-c5c[nH]c6ncc(F)cc56)ncc4F)C3)c2)c1 [Compound A61],25 to 50
5,CCOc1ccc(-c2ccnc(C(=O)N[C@@H]3CCC[C@H](Nc4nc(-c5c[nH]c6ncc(F)cc56)ncc4F)C3)c2)cc1 [Compound A62],5 to 25
6,O=C(N[C@@H]1CCC[C@H](Nc2nc(-c3c[nH]c4ncc(F)cc34)ncc2F)C1)c1ccc(-c2ccccc2)nc1 [Compound A63],5 to 25
7,Cc1cncc(C(=O)N[C@@H]2CCC[C@H](Nc3nc(-c4c[nH]c5ncc(F)cc45)ncc3F)C2)c1 [Compound A64],< 5
8,O=C(N[C@H]1CCC[C@@H](Nc2nc(-c3c[nH]c4ncc(F)cc34)ncc2F)C1)c1cncc2ccccc12 [Compound A65],25 to 50
9,O=C(N[C@@H]1CCC[C@H](Nc2nc(-c3c[nH]c4ncc(F)cc34)ncc2F)C1)c1cc(Oc2ccccc2)ccn1 [Compound A66],> 100
10,O=C(N[C@@H]1CCC[C@H](Nc2nc(-c3c[nH]c4ncc(F)cc34)ncc2F)C1)c1cncc(-c2ccccc2)c1 [Compound A67],> 100
11,CCOc1cccc(-c2cncc(C(=O)N[C@@H]3CCC[C@H](Nc4nc(-c5c[nH]c6ncc(F)cc56)ncc4F)C3)c2)c1 [Compound A68],25 to 50
12,CCOCCC(=O)N(CC)Cc1ccnc(C(=O)N[C@@H]2CCC[C@H](Nc3nc(-c4c[nH]c5ncc(F)cc45)ncc3F)C2)c1 [Compound A69],< 5
13,CCOCc1cccc(COCc2ccnc(C(=O)N[C@H]3CCC[C@@H](Nc4nc(-c5c[nH]c6ncc(F)cc56)ncc4F)C3)c2)c1 [Compound A71],> 100
14,CCc1cccc(OCCOCc2ccnc(C(=O)N[C@H]3CCC[C@@H](Nc4nc(-c5c[nH]c6ncc(F)cc56)ncc4F)C3)c2)c1 [Compound A72],25 to 50
15,COc1ccc(CNC(=O)OCc2ccnc(C(=O)N[C@H]3CCC[C@@H](Nc4nc(-c5c[nH]c6ncc(F)cc56)ncc4F)C3)c2)cc1 [Compound A73],> 100
16,CCOCCOCc1cccc(-c2ccnc(C(=O)N[C@H]3CCC[C@@H](Nc4nc(-c5c[nH]c6ncc(F)cc56)ncc4F)C3)c2)c1 [Compound A90],50 to 100
17,O=C(NCc1ccccc1)OCc1ccnc(C(=O)N[C@@H]2CCC[C@H](Nc3nc(-c4c[nH]c5ncc(F)cc45)ncc3F)C2)c1 [Compound A91],> 100
18,O=C(NCc1ccc(F)cc1)OCc1ccnc(C(=O)N[C@@H]2CCC[C@H](Nc3nc(-c4c[nH]c5ncc(F)cc45)ncc3F)C2)c1 [Compound A92],> 100
19,O=C(NCc1cccnc1)OCc1ccnc(C(=O)N[C@@H]2CCC[C@H](Nc3nc(-c4c[nH]c5ncc(F)cc45)ncc3F)C2)c1 [Compound A93],5 to 25
20,O=C(NCCc1ccccc1)OCc1ccnc(C(=O)N[C@@H]2CCC[C@H](Nc3nc(-c4c[nH]c5ncc(F)cc45)ncc3F)C2)c1 [Compound A94],> 100
21,O=C(N[C@@H]1CCC[C@H](Nc2nc(-c3c[nH]c4ncc(F)cc34)ncc2F)C1)c1cc(COCCCCCOCc2ccc(F)cc2)ccn1 [Compound A95],> 100
